# Source: the NIST ThermoML archive (doi:10.1016/j.fluid.2015.12.031)
# Numbers after ± are expanded uncertainties.
# Conditions: Liquid; Resistive pulse heating
SMILES,Critical pressure,Critical temperature
CCOC(=O)CCC(=O)OCC [diethyl butanedioate],2290 ± 70 kPa,666 ± 7 K
"CCOC(=O)CC(=O)OCC [diethyl 1,3-propanedioate]",2700 ± 80 kPa,651 ± 7 K
CCOC(=O)CCCCC(=O)OCC [diethyl hexanedioate],1990 ± 60 kPa,697 ± 7 K
